Experiments:
[1] = test system: Epidermal growth factor receptor (Homo sapiens), P00533 [G719S]; conditions: Compound concentration 1000.0 nM
[2] = test system: Epidermal growth factor receptor (Homo sapiens), P00533 [L861Q]; conditions: Compound concentration 1000.0 nM
[3] = biological target: Mitogen-activated protein kinase kinase kinase 3 (Homo sapiens) (UniProt Q99759); conditions: Compound concentration 1000.0 nM
[4] = biological target: 5-hydroxytryptamine receptor 2A (Homo sapiens) (UniProt P28223); conditions: Compound concentration 10.0 uM
5-hydroxytryptamine receptor 2A (Homo sapiens), sequence (P28223 whole entry): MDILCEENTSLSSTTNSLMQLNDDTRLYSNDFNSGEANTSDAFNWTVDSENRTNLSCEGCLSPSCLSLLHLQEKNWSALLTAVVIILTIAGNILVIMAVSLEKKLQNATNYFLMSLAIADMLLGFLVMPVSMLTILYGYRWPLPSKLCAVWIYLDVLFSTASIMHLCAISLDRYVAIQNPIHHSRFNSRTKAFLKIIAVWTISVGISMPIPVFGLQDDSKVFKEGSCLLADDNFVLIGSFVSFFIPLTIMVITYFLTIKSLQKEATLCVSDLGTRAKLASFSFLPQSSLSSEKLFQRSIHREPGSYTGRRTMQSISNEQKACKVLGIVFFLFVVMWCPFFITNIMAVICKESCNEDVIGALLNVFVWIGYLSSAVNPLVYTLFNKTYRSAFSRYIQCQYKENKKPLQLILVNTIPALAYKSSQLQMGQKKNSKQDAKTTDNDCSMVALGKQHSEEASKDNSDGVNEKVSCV

[5] = biological target: Tyrosine-protein kinase ITK/TSK (Homo sapiens) (UniProt Q08881); conditions: Compound concentration 1000.0 nM
[6] = biological target: Homeodomain-interacting protein kinase 2 (Homo sapiens) (UniProt Q9H2X6); conditions: Compound concentration 1000.0 nM
[7] = biological target: Beta-adrenergic receptor kinase 1 (Homo sapiens) (UniProt P25098); conditions: Compound concentration 1000.0 nM
[8] = biological target: Mitogen-activated protein kinase 10 (Homo sapiens) (UniProt P53779); conditions: Compound concentration 1000.0 nM
[9] = biological target: Casein kinase I isoform gamma-1 (Homo sapiens) (UniProt Q9HCP0); conditions: Compound concentration 1000.0 nM
[10] = biological target: Cyclin-dependent kinase 5 (Homo sapiens) (UniProt Q00535); conditions: Compound concentration 1000.0 nM
Cyclin-dependent kinase 5 (Homo sapiens), sequence (Q00535 whole entry, looked up, canonical isoform): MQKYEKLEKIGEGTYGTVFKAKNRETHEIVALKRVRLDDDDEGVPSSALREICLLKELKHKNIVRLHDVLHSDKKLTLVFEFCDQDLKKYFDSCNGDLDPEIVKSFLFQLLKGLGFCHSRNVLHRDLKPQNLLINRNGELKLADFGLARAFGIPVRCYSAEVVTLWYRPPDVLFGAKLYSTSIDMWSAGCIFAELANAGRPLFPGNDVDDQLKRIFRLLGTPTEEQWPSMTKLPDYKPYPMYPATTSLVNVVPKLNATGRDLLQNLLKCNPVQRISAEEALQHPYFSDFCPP

[11] = test system: Phosphatidylinositol 4,5-bisphosphate 3-kinase catalytic subunit alpha isoform (Homo sapiens), P42336 [E542K]; conditions: Compound concentration 1000.0 nM
[12] = biological target: Myosin-IIIa (Homo sapiens) (UniProt Q8NEV4); conditions: Compound concentration 1000.0 nM
[13] = biological target: Mitogen-activated protein kinase kinase kinase 7 (Homo sapiens) (UniProt O43318); conditions: Compound concentration 1000.0 nM
[14] = biological target: Dual specificity mitogen-activated protein kinase kinase 4 (Homo sapiens) (UniProt P45985); conditions: Compound concentration 1000.0 nM
[15] = biological target: 5-hydroxytryptamine receptor 1B (Homo sapiens) (UniProt P28222); conditions: Compound concentration 10.0 uM
[16] = biological target: Cyclin-dependent kinase 4 (Homo sapiens) (UniProt P11802); conditions: Compound concentration 1000.0 nM
[17] = test system: Phosphatidylinositol 4,5-bisphosphate 3-kinase catalytic subunit alpha isoform (Homo sapiens), P42336 [Q546K]; conditions: Compound concentration 1000.0 nM
[18] = biological target: Homeodomain-interacting protein kinase 3 (Homo sapiens) (UniProt Q9H422); conditions: Compound concentration 1000.0 nM
[19] = biological target: TGF-beta receptor type-2 (Homo sapiens) (UniProt P37173); conditions: Compound concentration 1000.0 nM
[20] = biological target: Serine/threonine-protein kinase ULK1 (Homo sapiens) (UniProt O75385); conditions: Compound concentration 1000.0 nM
[21] = test system: Receptor-type tyrosine-protein kinase FLT3 (Homo sapiens), P36888 [UNDEFINED MUTATION]; conditions: Compound concentration 1000.0 nM
[22] = biological target: Calcium/calmodulin-dependent protein kinase kinase 1 (Homo sapiens) (UniProt Q8N5S9); conditions: Compound concentration 1000.0 nM
[23] = biological target: Serine/threonine-protein kinase DCLK1 (Homo sapiens) (UniProt O15075); conditions: Compound concentration 1000.0 nM
Serine/threonine-protein kinase DCLK1 (Homo sapiens), sequence (O15075 whole entry, the tested form may be a part): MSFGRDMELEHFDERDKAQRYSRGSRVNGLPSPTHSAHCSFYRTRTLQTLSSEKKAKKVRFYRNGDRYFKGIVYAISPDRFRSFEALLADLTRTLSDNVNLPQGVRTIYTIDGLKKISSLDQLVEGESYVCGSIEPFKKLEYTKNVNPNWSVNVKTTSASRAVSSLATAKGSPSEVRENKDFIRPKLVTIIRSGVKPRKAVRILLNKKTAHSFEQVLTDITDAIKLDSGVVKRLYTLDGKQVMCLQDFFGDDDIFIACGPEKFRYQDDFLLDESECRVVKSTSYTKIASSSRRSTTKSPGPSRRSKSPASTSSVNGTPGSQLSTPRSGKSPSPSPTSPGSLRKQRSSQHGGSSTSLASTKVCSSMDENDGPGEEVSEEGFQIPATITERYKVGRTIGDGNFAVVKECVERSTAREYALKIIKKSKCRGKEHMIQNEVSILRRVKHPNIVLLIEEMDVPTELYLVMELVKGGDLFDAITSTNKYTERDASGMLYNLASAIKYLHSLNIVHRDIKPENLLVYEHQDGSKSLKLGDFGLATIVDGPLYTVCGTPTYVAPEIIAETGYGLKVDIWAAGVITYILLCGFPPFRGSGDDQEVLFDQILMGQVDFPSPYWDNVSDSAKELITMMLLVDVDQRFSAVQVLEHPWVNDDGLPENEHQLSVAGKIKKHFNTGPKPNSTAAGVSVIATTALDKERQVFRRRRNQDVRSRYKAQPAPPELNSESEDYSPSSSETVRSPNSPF

[24] = biological target: Ankyrin repeat and protein kinase domain-containing protein 1 (Homo sapiens) (UniProt Q8NFD2); conditions: Compound concentration 1000.0 nM
[25] = test system: Mast/stem cell growth factor receptor Kit (Homo sapiens), P10721 [V559D,V654A]; conditions: Compound concentration 1000.0 nM
[26] = biological target: Serine/threonine-protein kinase DCLK3 (Homo sapiens) (UniProt Q9C098); conditions: Compound concentration 1000.0 nM
[27] = biological target: Serine/threonine-protein kinase ULK2 (Homo sapiens) (UniProt Q8IYT8); conditions: Compound concentration 1000.0 nM
Serine/threonine-protein kinase ULK2 (Homo sapiens), sequence (Q8IYT8 whole entry): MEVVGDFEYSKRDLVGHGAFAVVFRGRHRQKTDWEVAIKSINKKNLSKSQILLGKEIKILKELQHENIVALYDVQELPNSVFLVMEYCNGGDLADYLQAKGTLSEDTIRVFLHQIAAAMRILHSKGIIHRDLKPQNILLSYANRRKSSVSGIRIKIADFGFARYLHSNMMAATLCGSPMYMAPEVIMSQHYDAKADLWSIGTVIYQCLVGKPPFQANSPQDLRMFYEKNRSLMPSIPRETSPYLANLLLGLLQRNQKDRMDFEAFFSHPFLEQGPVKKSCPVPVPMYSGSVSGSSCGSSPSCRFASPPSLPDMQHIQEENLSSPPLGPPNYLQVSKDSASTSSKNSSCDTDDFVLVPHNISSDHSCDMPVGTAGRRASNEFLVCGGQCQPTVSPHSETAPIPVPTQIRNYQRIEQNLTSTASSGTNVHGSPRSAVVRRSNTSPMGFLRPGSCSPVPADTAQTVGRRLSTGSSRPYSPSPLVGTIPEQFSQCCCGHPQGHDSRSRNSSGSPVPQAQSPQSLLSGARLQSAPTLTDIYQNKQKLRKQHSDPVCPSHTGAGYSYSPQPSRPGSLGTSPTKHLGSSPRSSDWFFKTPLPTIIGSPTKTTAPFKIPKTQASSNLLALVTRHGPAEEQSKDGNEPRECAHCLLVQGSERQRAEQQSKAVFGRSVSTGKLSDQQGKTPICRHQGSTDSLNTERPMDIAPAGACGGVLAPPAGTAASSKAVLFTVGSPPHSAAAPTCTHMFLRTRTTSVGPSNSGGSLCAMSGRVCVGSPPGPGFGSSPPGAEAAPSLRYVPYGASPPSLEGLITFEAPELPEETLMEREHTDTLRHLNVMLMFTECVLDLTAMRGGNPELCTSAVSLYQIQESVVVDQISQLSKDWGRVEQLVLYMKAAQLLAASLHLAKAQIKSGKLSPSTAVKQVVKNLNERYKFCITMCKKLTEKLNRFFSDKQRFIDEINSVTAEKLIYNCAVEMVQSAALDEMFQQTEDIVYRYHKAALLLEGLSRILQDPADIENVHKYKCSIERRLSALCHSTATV

[28] = biological target: Dual specificity protein kinase TTK (Homo sapiens) (UniProt P33981); conditions: Compound concentration 1000.0 nM
[29] = biological target: Tyrosine-protein kinase JAK1 (Homo sapiens) (UniProt P23458); conditions: Compound concentration 1000.0 nM
[30] = biological target: Serine/threonine-protein kinase TAO3 (Homo sapiens) (UniProt Q9H2K8); conditions: Compound concentration 1000.0 nM
[31] = biological target: Leukocyte tyrosine kinase receptor (Homo sapiens) (UniProt P29376); conditions: Compound concentration 1000.0 nM
[32] = biological target: Ephrin type-A receptor 3 (Homo sapiens) (UniProt P29320); conditions: Compound concentration 1000.0 nM
[33] = test system: Phosphatidylinositol 4,5-bisphosphate 3-kinase catalytic subunit alpha isoform (Homo sapiens), P42336 [E545K]; conditions: Compound concentration 1000.0 nM
[34] = biological target: Dual specificity mitogen-activated protein kinase kinase 1 (Homo sapiens) (UniProt Q02750); conditions: Compound concentration 1000.0 nM
Dual specificity mitogen-activated protein kinase kinase 1 (Homo sapiens), sequence (Q02750 whole entry): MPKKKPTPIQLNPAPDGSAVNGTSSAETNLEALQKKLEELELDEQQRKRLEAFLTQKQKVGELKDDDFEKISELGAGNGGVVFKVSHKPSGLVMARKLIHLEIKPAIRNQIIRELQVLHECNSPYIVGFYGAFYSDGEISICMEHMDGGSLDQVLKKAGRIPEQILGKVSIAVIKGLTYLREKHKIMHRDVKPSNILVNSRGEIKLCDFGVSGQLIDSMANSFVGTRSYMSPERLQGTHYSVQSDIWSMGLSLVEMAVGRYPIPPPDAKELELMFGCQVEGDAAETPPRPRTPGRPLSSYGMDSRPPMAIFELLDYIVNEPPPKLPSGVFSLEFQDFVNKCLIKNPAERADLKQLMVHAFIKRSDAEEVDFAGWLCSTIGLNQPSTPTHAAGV

[35] = biological target: Serine/threonine-protein kinase ULK3 (Homo sapiens) (UniProt Q6PHR2); conditions: Compound concentration 1000.0 nM
Serine/threonine-protein kinase ULK3 (Homo sapiens), sequence (Q6PHR2 whole entry): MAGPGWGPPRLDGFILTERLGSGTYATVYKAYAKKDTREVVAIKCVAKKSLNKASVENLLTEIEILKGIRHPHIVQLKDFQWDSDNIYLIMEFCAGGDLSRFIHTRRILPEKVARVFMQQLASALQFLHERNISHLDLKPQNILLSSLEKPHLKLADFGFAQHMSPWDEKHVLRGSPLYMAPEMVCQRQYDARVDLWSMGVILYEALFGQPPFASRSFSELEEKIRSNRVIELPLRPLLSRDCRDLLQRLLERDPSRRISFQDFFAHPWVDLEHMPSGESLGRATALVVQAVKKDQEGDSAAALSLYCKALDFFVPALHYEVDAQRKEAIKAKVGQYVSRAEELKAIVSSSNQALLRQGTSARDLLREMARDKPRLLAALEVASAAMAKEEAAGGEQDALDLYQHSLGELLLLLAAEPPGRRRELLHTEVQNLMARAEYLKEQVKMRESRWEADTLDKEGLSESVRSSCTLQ

[36] = biological target: Mitogen-activated protein kinase kinase kinase kinase 3 (Homo sapiens) (UniProt Q8IVH8); conditions: Compound concentration 1000.0 nM
[37] = biological target: Aurora kinase A (Homo sapiens) (UniProt O14965); conditions: Compound concentration 1000.0 nM
[38] = test system: Receptor-type tyrosine-protein kinase FLT3 (Homo sapiens), P36888 [N841I]; conditions: Compound concentration 1000.0 nM
[39] = biological target: Proto-oncogene tyrosine-protein kinase Src (Homo sapiens) (UniProt P12931); conditions: Compound concentration 1000.0 nM
[40] = biological target: Phosphatidylinositol 3-kinase C2 domain-containing subunit gamma (Homo sapiens) (UniProt O75747); conditions: Compound concentration 1000.0 nM
[41] = biological target: BDNF/NT-3 growth factors receptor (Homo sapiens) (UniProt Q16620); conditions: Compound concentration 1000.0 nM
[42] = biological target: Muscarinic acetylcholine receptor M4 (Homo sapiens) (UniProt P08173); conditions: Compound concentration 10.0 uM
[43] = biological target: Serine/threonine-protein kinase Chk2 (Homo sapiens) (UniProt O96017); conditions: Compound concentration 1000.0 nM
[44] = biological target: Mitogen-activated protein kinase kinase kinase 4 (Homo sapiens) (UniProt Q9Y6R4); conditions: Compound concentration 1000.0 nM
Mitogen-activated protein kinase kinase kinase 4 (Homo sapiens), sequence (Q9Y6R4 whole entry): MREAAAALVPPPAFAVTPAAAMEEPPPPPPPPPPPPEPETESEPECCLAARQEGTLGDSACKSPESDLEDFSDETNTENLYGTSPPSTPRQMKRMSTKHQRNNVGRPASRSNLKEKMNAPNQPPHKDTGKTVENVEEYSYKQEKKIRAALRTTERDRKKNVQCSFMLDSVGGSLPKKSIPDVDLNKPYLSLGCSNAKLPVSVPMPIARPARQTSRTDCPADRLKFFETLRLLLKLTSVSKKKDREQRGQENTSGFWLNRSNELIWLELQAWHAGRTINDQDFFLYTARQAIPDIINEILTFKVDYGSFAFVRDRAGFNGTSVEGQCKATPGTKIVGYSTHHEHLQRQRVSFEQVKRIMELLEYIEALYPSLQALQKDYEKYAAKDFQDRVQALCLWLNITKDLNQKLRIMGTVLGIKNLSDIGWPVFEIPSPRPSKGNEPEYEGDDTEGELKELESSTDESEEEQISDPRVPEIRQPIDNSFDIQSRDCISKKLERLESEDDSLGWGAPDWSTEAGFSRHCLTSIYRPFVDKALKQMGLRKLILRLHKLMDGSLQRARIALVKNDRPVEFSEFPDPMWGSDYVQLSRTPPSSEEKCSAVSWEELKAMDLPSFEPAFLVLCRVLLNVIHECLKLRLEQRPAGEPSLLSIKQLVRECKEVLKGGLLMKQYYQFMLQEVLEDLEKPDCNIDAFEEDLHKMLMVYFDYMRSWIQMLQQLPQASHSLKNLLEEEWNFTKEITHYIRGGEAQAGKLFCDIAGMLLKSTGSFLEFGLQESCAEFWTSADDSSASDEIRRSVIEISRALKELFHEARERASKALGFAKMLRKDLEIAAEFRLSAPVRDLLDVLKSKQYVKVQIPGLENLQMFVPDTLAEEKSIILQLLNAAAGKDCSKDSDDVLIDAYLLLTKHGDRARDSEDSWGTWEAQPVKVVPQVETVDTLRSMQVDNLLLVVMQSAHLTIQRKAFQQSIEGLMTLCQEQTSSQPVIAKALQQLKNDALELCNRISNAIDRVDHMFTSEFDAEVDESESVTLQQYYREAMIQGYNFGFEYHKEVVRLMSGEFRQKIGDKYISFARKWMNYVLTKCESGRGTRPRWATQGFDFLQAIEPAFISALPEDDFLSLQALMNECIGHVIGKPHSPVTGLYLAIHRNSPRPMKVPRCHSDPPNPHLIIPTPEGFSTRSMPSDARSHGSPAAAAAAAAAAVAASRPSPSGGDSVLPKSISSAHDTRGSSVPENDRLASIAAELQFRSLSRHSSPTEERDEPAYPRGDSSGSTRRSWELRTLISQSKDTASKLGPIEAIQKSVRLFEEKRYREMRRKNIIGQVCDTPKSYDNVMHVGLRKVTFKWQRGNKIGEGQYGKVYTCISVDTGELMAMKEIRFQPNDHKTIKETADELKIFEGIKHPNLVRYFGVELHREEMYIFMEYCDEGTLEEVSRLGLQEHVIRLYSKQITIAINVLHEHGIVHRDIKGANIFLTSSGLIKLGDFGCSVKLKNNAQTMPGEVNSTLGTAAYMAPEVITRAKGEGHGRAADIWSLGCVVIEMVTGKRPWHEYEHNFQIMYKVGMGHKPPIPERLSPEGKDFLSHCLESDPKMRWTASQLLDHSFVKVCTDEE

CCS(=O)(=O)c1cc2cc(C[C@@](O)(CC(C)(C)c3ccc(F)cc3C(N)=O)C(F)(F)F)[nH]c2cn1
inactive: residual activity [1] 100% | residual activity [2] 100% | residual activity [3] 90% | inhibition [4] 14.1% | residual activity [5] 96% | residual activity [6] 100% | residual activity [7] 50% | residual activity [8] 100% | residual activity [9] 100% | residual activity [10] 100% | residual activity [11] 74% | residual activity [12] 80% | residual activity [13] 92% | residual activity [14] 100% | inhibition [15] 4.85% | residual activity [16] 97% | residual activity [17] 69% | residual activity [18] 65% | residual activity [19] 100% | residual activity [20] 100% | residual activity [21] 73% | residual activity [22] 87% | residual activity [23] 100% | residual activity [24] 70% | residual activity [25] 81% | residual activity [26] 100% | residual activity [27] 85% | residual activity [28] 78% | residual activity [29] 90% | residual activity [30] 78% | residual activity [31] 100% | residual activity [32] 85% | residual activity [33] 79% | residual activity [34] 68% | residual activity [35] 98% | residual activity [36] 82% | residual activity [37] 88% | residual activity [38] 100% | residual activity [39] 100% | residual activity [40] 100% | residual activity [41] 84% | inhibition [42] 18.2% | residual activity [43] 84% | residual activity [44] 93%

CCS(=O)(=O)c1cc2cc(C[C@](O)(CC(C)(C)c3ccc(F)cc3C(N)=O)C(F)(F)F)[nH]c2cn1
inactive: residual activity [1] 100% | residual activity [2] 100% | residual activity [3] 92% | inhibition [4] 12.6% | residual activity [5] 100% | residual activity [6] 100% | residual activity [7] 84% | residual activity [8] 100% | residual activity [9] 96% | residual activity [10] 100% | residual activity [11] 66% | residual activity [12] 94% | residual activity [13] 100% | residual activity [14] 100% | inhibition [15] 9.55% | residual activity [16] 96% | residual activity [17] 80% | residual activity [18] 100% | residual activity [19] 100% | residual activity [20] 100% | residual activity [21] 86% | residual activity [22] 100% | residual activity [23] 99% | residual activity [24] 89% | residual activity [25] 79% | residual activity [26] 100% | residual activity [27] 100% | residual activity [28] 99% | residual activity [29] 95% | residual activity [30] 86% | residual activity [31] 97% | residual activity [32] 95% | residual activity [33] 80% | residual activity [34] 91% | residual activity [35] 100% | residual activity [36] 83% | residual activity [37] 88% | residual activity [38] 93% | residual activity [39] 100% | residual activity [40] 100% | residual activity [41] 100% | inhibition [42] 13.1% | residual activity [43] 92% | residual activity [44] 93%
